According to ChEMBL document CHEMBL1201862, “PubChem BioAssay data set” (2004):
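Growth conditions: 96-well plates. Treatment: test compound, 48 hours, 5 concentrations. Analysis: linear interpolation between bracketing concentrations; unreached endpoints set to highest concentration. Abbreviation: GI50, concentration required for 50% inhibition of growth.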 Activity calls are given as the source filed them. No stated cut-off is given here; in the data, active = GI50 up to about 1.1 µM and inactive = higher.

Assays:
Test in all cases: growth of human tumour cells (NCI), 48 h
[1] = tested on: MDA-MB-231
[2] = tested on: CCRF-CEM
[3] = tested on: OVCAR-4
[4] = tested on: SNB-75
[5] = tested on: KM12
[6] = tested on: TK-10
[7] = tested on: A498
[8] = tested on: MDA-N
[9] = tested on: UACC-62
[10] = tested on: 786-0
[11] = tested on: SK-MEL-2
[12] = tested on: A549
[13] = tested on: OVCAR-5
[14] = tested on: IGROV-1
[15] = tested on: SK-OV-3
[16] = tested on: COLO 205
[17] = tested on: MCF7
[18] = tested on: SK-MEL-5
[19] = tested on: M14
[20] = tested on: SNB-19
[21] = tested on: MDA-MB-435
[22] = tested on: NCI-H23
[23] = tested on: LOX IMVI
[24] = tested on: NCI-H226
[25] = tested on: HL-60
[26] = tested on: HCC 2998
[27] = tested on: PC-3
[28] = tested on: K562
[29] = tested on: SR
[30] = tested on: HCT-116
[31] = tested on: SF-295
[32] = tested on: NCI-H522
[33] = tested on: HCT-15
[34] = tested on: Malme-3M
[35] = tested on: BT-549
[36] = tested on: OVCAR-8
[37] = tested on: SN12C
[38] = tested on: SW-620
[39] = tested on: UACC-257
[40] = tested on: UO-31
[41] = tested on: MOLT-4
[42] = tested on: EKVX
[43] = tested on: NCI/ADR-RES
[44] = tested on: SK-MEL-28
[45] = tested on: SF-268
[46] = tested on: Hs-578T
[47] = tested on: U-251
[48] = tested on: HT-29
[49] = tested on: T47D
[50] = tested on: HOP-92
[51] = tested on: CAKI-1
[52] = tested on: DU-145
[53] = tested on: SF-539
[54] = tested on: NCI-H460
[55] = tested on: HOP-62
[56] = tested on: RPMI-8226
[57] = tested on: RXF 393
[58] = tested on: ACHN
[59] = tested on: OVCAR-3

CC#CC#C/C=C1/C=CC2(CCCCO2)O1 (centres undefined)
GI50 [1]: > 100 µM (inactive)
GI50 [2]: 21.2 µM (inactive)
GI50 [3]: > 100 µM (inactive)
GI50 [4]: > 100 µM (inactive)
GI50 [5]: > 100 µM (inactive)
GI50 [6]: > 100 µM (inactive)
GI50 [7]: > 100 µM (inactive)
GI50 [8]: > 100 µM (inactive)
GI50 [9]: 86.5 µM (inactive)
GI50 [10]: > 100 µM (inactive)
GI50 [11]: > 100 µM (inactive)
GI50 [12]: > 100 µM (inactive)
GI50 [13]: > 100 µM (inactive)
GI50 [14]: 70.1 µM (inactive)
GI50 [15]: > 100 µM (inactive)
GI50 [16]: 71.1 µM (inactive)
GI50 [17]: 94.4 µM (inactive)
GI50 [18]: > 100 µM (inactive)
GI50 [19]: > 100 µM (inactive)
GI50 [20]: 40.6 µM (inactive)
GI50 [21]: > 100 µM (inactive)
GI50 [22]: > 100 µM (inactive)
GI50 [23]: 90.2 µM (inactive)
GI50 [24]: > 100 µM (inactive)
GI50 [25]: 19.5 µM (inactive)
GI50 [26]: > 100 µM (inactive)
GI50 [27]: > 100 µM (inactive)
GI50 [28]: 40.2 µM (inactive)
GI50 [29]: 35.6 µM (inactive)
GI50 [30]: > 100 µM (inactive)
GI50 [31]: > 100 µM (inactive)
GI50 [32]: 40.1 µM (inactive)
GI50 [33]: 56.8 µM
GI50 [34]: > 100 µM (inactive)
GI50 [35]: > 100 µM (inactive)
GI50 [36]: > 100 µM (inactive)
GI50 [37]: > 100 µM (inactive)
GI50 [38]: > 100 µM (inactive)
GI50 [39]: > 100 µM (inactive)
GI50 [40]: 42.9 µM (inactive)
GI50 [41]: 33.5 µM (inactive)
GI50 [42]: > 100 µM (inactive)
GI50 [43]: > 100 µM (inactive)
GI50 [44]: > 100 µM (inactive)
GI50 [45]: > 100 µM (inactive)
GI50 [46]: > 100 µM (inactive)
GI50 [47]: > 100 µM (inactive)
GI50 [48]: > 100 µM (inactive)
GI50 [49]: > 100 µM (inactive)
GI50 [50]: > 100 µM (inactive)
GI50 [51]: > 100 µM (inactive)
GI50 [52]: > 100 µM (inactive)
GI50 [53]: > 100 µM (inactive)
GI50 [54]: > 100 µM (inactive)

O=C1NC(NNc2ccccc2)=N/C1=C\c1ccco1
GI50 [1]: 20 µM (inactive)
GI50 [2]: 4.61 µM (inactive)
GI50 [3]: 14.6 µM (inactive)
GI50 [4]: 24.7 µM (inactive)
GI50 [5]: 11.2 µM (inactive)
GI50 [55]: 33.9 µM (inactive)
GI50 [6]: 18.3 µM (inactive)
GI50 [7]: 46.8 µM (inactive)
GI50 [8]: 26.9 µM (inactive)
GI50 [9]: 4.29 µM (inactive)
GI50 [10]: 17.4 µM (inactive)
GI50 [11]: 12.9 µM (inactive)
GI50 [12]: 46.5 µM (inactive)
GI50 [13]: 37.7 µM (inactive)
GI50 [14]: 15.7 µM (inactive)
GI50 [15]: > 100 µM (inactive)
GI50 [16]: 12.6 µM (inactive)
GI50 [17]: 15.5 µM (inactive)
GI50 [18]: 25.5 µM (inactive)
GI50 [56]: 16.3 µM (inactive)
GI50 [19]: 8.47 µM (inactive)
GI50 [20]: 43.5 µM (inactive)
GI50 [21]: 12.4 µM (inactive)
GI50 [22]: 18.8 µM (inactive)
GI50 [25]: 20.3 µM (inactive)
GI50 [26]: 17.6 µM (inactive)
GI50 [27]: 19.3 µM (inactive)
GI50 [30]: 14.3 µM (inactive)
GI50 [31]: 39.5 µM (inactive)
GI50 [32]: 12.9 µM (inactive)
GI50 [33]: 16 µM
GI50 [34]: 28.1 µM (inactive)
GI50 [57]: 13.4 µM (inactive)
GI50 [35]: 21.2 µM (inactive)
GI50 [58]: 13.2 µM (inactive)
GI50 [36]: 17.6 µM (inactive)
GI50 [37]: 22.1 µM (inactive)
GI50 [38]: 18.1 µM (inactive)
GI50 [39]: 21.1 µM (inactive)
GI50 [40]: 27.8 µM (inactive)
GI50 [41]: 30.1 µM (inactive)
GI50 [42]: 18.7 µM (inactive)
GI50 [43]: 26.2 µM (inactive)
GI50 [44]: 25.4 µM (inactive)
GI50 [45]: 22.4 µM (inactive)
GI50 [46]: 26.2 µM (inactive)
GI50 [47]: 17.7 µM (inactive)
GI50 [48]: 18.6 µM (inactive)
GI50 [49]: 14 µM (inactive)
GI50 [50]: 14.8 µM (inactive)
GI50 [51]: 14.3 µM (inactive)
GI50 [52]: 17.5 µM (inactive)
GI50 [54]: 22.4 µM (inactive)
GI50 [59]: 17.5 µM (inactive)

COC(=O)c1cc(O)c(O)c(O)c1-c1c(O)c(O)c(O)c(SC[C@H](NC(=O)OCc2ccccc2)C(=O)OCc2ccccc2)c1C(=O)OC
GI50 [1]: 16.7 µM (inactive)
GI50 [2]: 16.3 µM (inactive)
GI50 [3]: 26.5 µM (inactive)
GI50 [4]: 20.3 µM (inactive)
GI50 [5]: 31.9 µM (inactive)
GI50 [55]: 35.1 µM (inactive)
GI50 [6]: 67.9 µM (inactive)
GI50 [7]: 31.5 µM (inactive)
GI50 [8]: 19.8 µM (inactive)
GI50 [9]: 22.3 µM (inactive)
GI50 [10]: 18.6 µM (inactive)
GI50 [11]: 19.9 µM (inactive)
GI50 [12]: 17.9 µM (inactive)
GI50 [13]: 33.9 µM (inactive)
GI50 [14]: 28.8 µM (inactive)
GI50 [15]: 41.9 µM (inactive)
GI50 [16]: 22.6 µM (inactive)
GI50 [17]: 18 µM (inactive)
GI50 [56]: 21.8 µM (inactive)
GI50 [19]: 17.9 µM (inactive)
GI50 [20]: 30.8 µM (inactive)
GI50 [21]: 11.1 µM (inactive)
GI50 [22]: 22 µM (inactive)
GI50 [23]: 17.9 µM (inactive)
GI50 [24]: 21.2 µM (inactive)
GI50 [25]: 15.1 µM (inactive)
GI50 [26]: 24.1 µM (inactive)
GI50 [27]: 22.6 µM (inactive)
GI50 [28]: 19.6 µM (inactive)
GI50 [30]: 17.3 µM (inactive)
GI50 [31]: 35.3 µM (inactive)
GI50 [32]: 22.3 µM (inactive)
GI50 [33]: 27.5 µM
GI50 [34]: 78.5 µM (inactive)
GI50 [57]: 20.2 µM (inactive)
GI50 [35]: 34.7 µM (inactive)
GI50 [58]: 22.5 µM (inactive)
GI50 [36]: 21.2 µM (inactive)
GI50 [37]: 19.4 µM (inactive)
GI50 [38]: 23.8 µM (inactive)
GI50 [39]: 32.8 µM (inactive)
GI50 [41]: 17.6 µM (inactive)
GI50 [42]: 19.7 µM (inactive)
GI50 [43]: 35 µM (inactive)
GI50 [44]: 30.1 µM (inactive)
GI50 [45]: 25.9 µM (inactive)
GI50 [46]: 29.6 µM (inactive)
GI50 [47]: 16.4 µM (inactive)
GI50 [48]: 28.3 µM (inactive)
GI50 [49]: 32.4 µM (inactive)
GI50 [50]: 26.2 µM (inactive)
GI50 [51]: 18.7 µM (inactive)
GI50 [52]: 39.2 µM (inactive)
GI50 [53]: 28.4 µM (inactive)
GI50 [54]: 29.2 µM (inactive)
GI50 [59]: 34 µM (inactive)
